The values below are quoted from earlier work in patent US10772323B2, “Benzoic acid herbicide composition” (NUFARM AUSTRALIA LIMITED, priority 2015, dated 2020).

The conditions of the data set: acid form; 25° C.

On to `COc1c(Cl)ccc(Cl)c1C(=O)O` [dicamba, 3,6-dichloro-2-methoxybenzoic acid], for which the water solubility entry was “about 4500 mg/L”.
